≈ marks a conversion by molar mass, not a printed value.
Conditions: buffer; pH 7.4; 200.0 µM
With `O=C(/C=C/c1ccc([N+](=O)[O-])cc1)N1CCN(Cc2ccccc2)CC1` the solubility kinetic was 1.7 µg/mL (≈ 4.84 µM). Work on `COc1ccc(NC(=S)N2CCN(c3ccccc3)CC2)c(OC)c1` yielded a solubility kinetic of 2.6 µg/mL (≈ 7.27 µM). In the case of `Cc1ccc(S(=O)(=O)N2CCC[C@H]2C(=O)NCc2ccccc2Cl)cc1`, the solubility kinetic is reported as over 58.9 µg/mL. For `CCn1c(=O)c(C(=O)Nc2ccc(C)cc2C)c(O)c2ccccc21`, the solubility kinetic was under 0.4 µg/mL. Work on `CC(C)OC(=O)Cn1cc(C#N)c2ccccc21` yielded a solubility kinetic of over 36.3 µg/mL. Work on `COc1ccc(OC)c(/C=C/c2c([N+](=O)[O-])c(=O)n(C)c(=O)n2C)c1` yielded a solubility kinetic of 3.4 µg/mL (≈ 9.79 µM). For `Cl.O=C(Nc1ncc([N+](=O)[O-])s1)c1cccs1`, the solubility kinetic was over 43.8 µg/mL. `CSc1ccccc1NC(=O)COC(=O)CCC(=O)c1ccc(F)cc1` gave a solubility kinetic of over 56.3 µg/mL. `CC(=O)NCCc1nc2cc(NS(=O)(=O)c3ccccc3)ccc2n1C` gave a solubility kinetic of over 55.9 µg/mL. In the case of `O=C(NC(=S)NCc1ccccc1Cl)c1cccs1`, the solubility kinetic is reported as 3.2 µg/mL (≈ 10.3 µM). For `CSc1ncc(Cl)c(C(=O)Nc2ccccc2[N+](=O)[O-])n1`, the solubility kinetic was under 0.2 µg/mL. In the case of `Cc1cc(CNC(=S)Nc2cccc(Cl)c2Cl)nn1C`, the solubility kinetic is reported as over 49.4 µg/mL. `O=C(c1cnccn1)N1CCN(S(=O)(=O)c2cccc(Cl)c2)CC1` showed a solubility kinetic of over 55 µg/mL. In the case of `CC(C)=C(NC(=O)c1ccccc1)C(=O)Nc1cccc(C(=O)O)c1`, the solubility kinetic is reported as over 50.8 µg/mL. Work on `CCCSc1nsc(NC(=O)c2cccnc2OCC)n1` yielded a solubility kinetic of 0.5 µg/mL (≈ 1.54 µM). `Cc1ccn2c(=O)cc(C)nc2c1` showed a solubility kinetic of over 26.1 µg/mL. With `Cc1ccc(NC(=O)C2CC(=O)N(CCc3ccccc3)C2)c(C)c1` (centres undefined) the solubility kinetic was 42 µg/mL (≈ 125 µM). `Cc1ccc(C)c(OCCC(=O)OCC(=O)Nc2cc(S(=O)(=O)N3CCCCC3)ccc2C)c1` gave a solubility kinetic of 13.9 µg/mL (≈ 28.4 µM). Compound `COCCCNC(=S)Nc1ccccc1[N+](=O)[O-]` has a solubility kinetic of over 40.4 µg/mL. In the case of `CCOC(=O)C1(Cc2ccccc2)C(=O)Nc2ccccc21` (centres undefined), the solubility kinetic is reported as 37.1 µg/mL (≈ 126 µM). In the case of `CN(C)CC#CCC(O)(c1ccccc1)c1ccccc1`, the solubility kinetic is reported as over 41.9 µg/mL. Compound `O=C(NCC(=O)N1CCN(c2ccccc2)CC1)c1cccs1` has a solubility kinetic of over 49.4 µg/mL. `CCn1c(C)nc([N+](=O)[O-])c1C(=O)O` gave a solubility kinetic of over 29.9 µg/mL. For `COC(=O)c1sccc1NC(=O)Nc1ccc(F)cc1F`, the solubility kinetic was 26.6 µg/mL (≈ 85.2 µM). In the case of `COc1ccc2[nH]c(C)c(C(=O)CN(C)CC3OCCO3)c2c1`, the solubility kinetic is reported as 45.9 µg/mL (≈ 144 µM). `CC(=O)c1ccc(OC(=O)CN2C(=O)c3ccccc3C2=O)cc1` gave a solubility kinetic of over 48.5 µg/mL. In the case of `COc1ccc(C(CNC(=O)c2ccc(S(=O)(=O)N3CC(C)CC(C)C3)cc2)N(C)C)cc1` (centres undefined), the solubility kinetic is reported as over 71 µg/mL. Work on `COCc1cc(=O)[nH]c(/N=C(\N)Nc2ccc(Cl)c(Cl)c2)n1` yielded a solubility kinetic of 0.2 µg/mL (≈ 0.584 µM). In the case of `Fc1ccccc1C1CCN(Cc2nc(COc3ccccc3)no2)C1` (centres undefined), the solubility kinetic is reported as 12.7 µg/mL (≈ 35.9 µM). In the case of `O=C(NCCC1=CCCCC1)c1cc2ccccc2oc1=O`, the solubility kinetic is reported as under 0.6 µg/mL. In the case of `CCN(CC)CC#CC(O)(c1ccccc1)c1ccccc1`, the solubility kinetic is reported as over 44 µg/mL. Work on `CN(C)/C=C/C(=O)c1ccc([N+](=O)[O-])c(CS(=O)(=O)c2ccccc2)c1` yielded a solubility kinetic of over 56.2 µg/mL. For `Cc1ccc(S(=O)(=O)NCC(=O)OCC(=O)NCc2ccco2)cc1`, the solubility kinetic was over 55 µg/mL. In the case of `CCc1ccc(NC(=S)N2CCCC(C(F)(F)F)C2)cc1` (centres undefined), the solubility kinetic is reported as 6.1 µg/mL (≈ 19.3 µM). With `Cn1c2ccccc2c2ncn(Cc3ccc(F)cc3)c(=O)c21` the solubility kinetic was under 0.2 µg/mL. In the case of `O=C(CN1C(=O)COc2ccc(Cl)cc21)NC1CC1`, the solubility kinetic is reported as over 42.1 µg/mL. Work on `O=S(=O)(c1ccc2c(c1)CCCN2)N1CCCCC1` yielded a solubility kinetic of over 42.1 µg/mL. `O=C(CNC(=O)c1ccccc1F)Nc1ccc2c(c1)CCC2` gave a solubility kinetic of 2.9 µg/mL (≈ 9.28 µM). `N#Cc1ccc(Cn2cc(C=O)c3ccccc32)cc1` showed a solubility kinetic of 4 µg/mL (≈ 15.4 µM). `Cc1ccc(NC(=O)Cn2cc(C=O)c3ccccc32)cc1C` showed a solubility kinetic of under 0.3 µg/mL. With `C=CCN(Cc1cccc(OC)c1OC)C(=O)Oc1ccccc1` the solubility kinetic was 9.6 µg/mL (≈ 29.3 µM). `CCN1CCN(C(=O)C(=O)c2c(C)[nH]c3ccccc23)CC1` showed a solubility kinetic of 36.1 µg/mL (≈ 121 µM). Compound `COc1ccc(C(=O)COC(=O)c2cccnc2SC)cc1` has a solubility kinetic of under 0.7 µg/mL. `O=[N+]([O-])c1ccc(S(=O)(=O)Nc2nc(-c3ccccc3)cs2)cc1` showed a solubility kinetic of over 54.2 µg/mL. Work on `Nc1nc(NCc2ccccc2)nc(NCCO)c1[N+](=O)[O-]` yielded a solubility kinetic of 43.4 µg/mL (≈ 143 µM). `Cc1ccc(NC(=O)CN2C(=O)NC(C)(c3ccc4c(c3)OCO4)C2=O)cc1` (centres undefined) gave a solubility kinetic of over 57.2 µg/mL. Work on `CN1C2CCC1CC(NC(=O)c1ccc(Cl)cc1)C2` (centres undefined) yielded a solubility kinetic of over 41.8 µg/mL. With `COc1ccc(CC(=O)OCN2C(=O)c3ccccc3C2=O)cc1OC` the solubility kinetic was over 53.3 µg/mL. Work on `O=[N+]([O-])c1cc(Cl)ccc1Nc1ccccc1` yielded a solubility kinetic of under 0.3 µg/mL. For `O=C(Nc1ncc(Cc2cccc([N+](=O)[O-])c2)s1)c1ccco1`, the solubility kinetic was 0.7 µg/mL (≈ 2.13 µM). With `O=C(Nc1ccccc1C(=O)NCCCN1CCOCC1)c1ccc(F)cc1` the solubility kinetic was 55.4 µg/mL (≈ 144 µM). Compound `CN1CCC(NC(=S)NC2CC2)CC1` has a solubility kinetic of over 32 µg/mL. In the case of `COc1ccc(NC(=O)C2Cc3ccccc3O/C2=N\O)cc1` (centres undefined), the solubility kinetic is reported as 10.2 µg/mL (≈ 32.7 µM). Compound `Cc1ccc(OCC(O)CN2CCOCC2)c(C)c1.Cl` (centres undefined) has a solubility kinetic of over 45.3 µg/mL. In the case of `COc1ccc(Cl)cc1NC(=O)CN(C)C(=O)C1COc2ccccc2O1` (centres undefined), the solubility kinetic is reported as 43.1 µg/mL (≈ 110 µM). `Cn1c(/C(C#N)=C(\O)c2cccc(F)c2)nc2ccccc21` showed a solubility kinetic of 0.3 µg/mL (≈ 1.02 µM). With `COc1cccc(CC(=O)NCCCSc2ccccc2)c1` the solubility kinetic was 47.3 µg/mL (≈ 150 µM). With `NC(=O)c1cc(-c2ccccc2)nc2ccc(Br)cc12` the solubility kinetic was 1.8 µg/mL (≈ 5.5 µM). `Cc1ccc(Sc2ncccc2NC(=O)c2ccccc2Cl)cc1` showed a solubility kinetic of 2 µg/mL (≈ 5.64 µM).

Source: PubChem BioAssay AID1996
